Laboratory results taken from patent publication US20240018145A1, “[…]-DEPENDENT EN[…] TREATING OR […]” (priority 2020, published 2024).

tested on: FLU A (PR/8/34); test: Flu A Neuraminidase Antiviral Assay; format: cell-based

Row | SMILES | EC50 [µM]
1 | CN1C(=O)c2c(O)c(=O)ccn2N2C1CCC1(CCCC(F)(F)C1)C2c1ccccc1 (single isomer, unassigned) [Compound 75D, 3,3-difluoro-7′-hydroxy-5′-methyl-1′-phenyl-3′,4′,4a′,5′-tetrahydro-1′H-spiro[cyclohexane-1,2′-dipyrido[1,2-b:2′,1′-f][1,2,4]triazine]-6′,8′-dione] | 0.0192
2 | CCN1C(=O)c2c(O)c(=O)ccn2N2C1CCC1(CCC(F)(F)CC1)C2c1ccccc1 (single isomer, unassigned) [Compound 76A] | > 0.81
3 | CCN1C(=O)c2c(O)c(=O)ccn2N2C1CCC1(CCC(F)(F)CC1)C2c1ccccc1 (single isomer, unassigned) [Compound 76B] | 0.002
4 | Cc1cccc(F)c1C1C(CC(F)(F)F)CCC2N(C)C(=O)c3c(O)c(=O)ccn3N12 (single isomer, unassigned) [Compound 77A, 1-(2-fluoro-6-methylphenyl)-7-hydroxy-5-methyl-2-(2,2,2-trifluoroethyl)-1,2,3,4,4a,5-hexahydrodipyrido[1,2-b:2′,1′-f][1,2,4]triazine-6,8-dione] | 0.0033
5 | Cc1cccc(F)c1C1C(CC(F)(F)F)CCC2N(C)C(=O)c3c(O)c(=O)ccn3N12 (single isomer, unassigned) [Compound 77B, 1-(2-fluoro-6-methylphenyl)-7-hydroxy-5-methyl-2-(2,2,2-trifluoroethyl)-1,2,3,4,4a,5-hexahydrodipyrido[1,2-b:2′,1′-f][1,2,4]triazine-6,8-dione] | 0.0032
6 | Cc1cccc(F)c1C1C(CC(F)(F)F)CCC2N(C)C(=O)c3c(O)c(=O)ccn3N12 (single isomer, unassigned) [Compound 77C, 1-(2-fluoro-6-methylphenyl)-7-hydroxy-5-methyl-2-(2,2,2-trifluoroethyl)-1,2,3,4,4a,5-hexahydrodipyrido[1,2-b:2′,1′-f][1,2,4]triazine-6,8-dione] | > 0.81
7 | Cc1cccc(F)c1C1C(CC(F)(F)F)CCC2N(C)C(=O)c3c(O)c(=O)ccn3N12 (single isomer, unassigned) [Compound 77D, 1-(2-fluoro-6-methylphenyl)-7-hydroxy-5-methyl-2-(2,2,2-trifluoroethyl)-1,2,3,4,4a,5-hexahydrodipyrido[1,2-b:2′,1′-f][1,2,4]triazine-6,8-dione] | 0.0019
8 | CN1C(=O)c2c(O)c(=O)ccn2N2C(c3ccccc3)C(CCC(F)(F)F)CCC12C (single isomer, unassigned) [Compound 78A, 7-hydroxy-4a,5-dimethyl-1-phenyl-2-(3,3,3-trifluoropropyl)-1,2,3,4,4a,5-hexahydrodipyrido[1,2-b:2′,1′-f][1,2,4]triazine-6,8-dione] | > 0.81
9 | CN1C(=O)c2c(O)c(=O)ccn2N2C(c3ccccc3)C(CCC(F)(F)F)CCC12C (single isomer, unassigned) [Compound 78B, 7-hydroxy-4a,5-dimethyl-1-phenyl-2-(3,3,3-trifluoropropyl)-1,2,3,4,4a,5-hexahydrodipyrido[1,2-b:2′,1′-f][1,2,4]triazine-6,8-dione] | 0.0029
10 | Cc1ccccc1C1C(CC(F)(F)F)CC(C)C2N(C)C(=O)c3c(O)c(=O)ccn3N12 (single isomer, unassigned) [Compound 79A, 7-hydroxy-4,5-dimethyl-1-(o-tolyl)-2-(2,2,2-trifluoroethyl)-1,2,3,4,4a,5-hexahydrodipyrido[1,2-b:2′,1′-f][1,2,4]triazine-6,8-dione] | 0.0838
11 | Cc1ccccc1C1C(CC(F)(F)F)CC(C)C2N(C)C(=O)c3c(O)c(=O)ccn3N12 (single isomer, unassigned) [Compound 79B, 7-hydroxy-4,5-dimethyl-1-(o-tolyl)-2-(2,2,2-trifluoroethyl)-1,2,3,4,4a,5-hexahydrodipyrido[1,2-b:2′,1′-f][1,2,4]triazine-6,8-dione] | 0.0023
12 | Cc1c(F)cccc1C1C(CC(F)(F)F)CCC2N(C)C(=O)c3c(O)c(=O)ccn3N12 (single isomer, unassigned) [Compound 80A, 1-(3-fluoro-2-methylphenyl)-7-hydroxy-5-methyl-2-(2,2,2-trifluoroethyl)-1,2,3,4,4a,5-hexahydrodipyrido[1,2-b:2′,1′-f][1,2,4]triazine-6,8-dione] | 0.0596
13 | Cc1c(F)cccc1C1C(CC(F)(F)F)CCC2N(C)C(=O)c3c(O)c(=O)ccn3N12 (single isomer, unassigned) [Compound 80B, 1-(3-fluoro-2-methylphenyl)-7-hydroxy-5-methyl-2-(2,2,2-trifluoroethyl)-1,2,3,4,4a,5-hexahydrodipyrido[1,2-b:2′,1′-f][1,2,4]triazine-6,8-dione] | 0.0033
14 | Cc1ccccc1C1C(CC(F)(C(F)(F)F)C(F)(F)F)CCC2N(C)C(=O)c3c(O)c(=O)ccn3N12 (single isomer, unassigned) [Compound 81A, 7-hydroxy-5-methyl-2-(2,3,3,3-tetrafluoro-2-(trifluoromethyl)propyl)-1-(o-tolyl)-1,2,3,4,4a,5-hexahydrodipyrido[1,2-b:2′,1′-f][1,2,4]triazine-6,8-dione] | 0.0191
15 | Cc1ccccc1C1C(CC(F)(C(F)(F)F)C(F)(F)F)CCC2N(C)C(=O)c3c(O)c(=O)ccn3N12 (single isomer, unassigned) [Compound 81B, 7-hydroxy-5-methyl-2-(2,3,3,3-tetrafluoro-2-(trifluoromethyl)propyl)-1-(o-tolyl)-1,2,3,4,4a,5-hexahydrodipyrido[1,2-b:2′,1′-f][1,2,4]triazine-6,8-dione] | 0.744
16 | CCN1C(=O)c2c(O)c(=O)ccn2N2C(c3ccccc3)C(CC(F)(F)F)CCC12C (single isomer, unassigned) [Compound 82A, 5-ethyl-7-hydroxy-4a-methyl-1-phenyl-2-(2,2,2-trifluoroethyl)-1,2,3,4,4a,5-hexahydrodipyrido[1,2-b:2′,1′-f][1,2,4]triazine-6,8-dione] | > 0.81
17 | CCN1C(=O)c2c(O)c(=O)ccn2N2C(c3ccccc3)C(CC(F)(F)F)CCC12C (single isomer, unassigned) [Compound 82B, 5-ethyl-7-hydroxy-4a-methyl-1-phenyl-2-(2,2,2-trifluoroethyl)-1,2,3,4,4a,5-hexahydrodipyrido[1,2-b:2′,1′-f][1,2,4]triazine-6,8-dione] | 0.0023
18 | CN1C(=O)c2c(O)c(=O)ccn2N2C(c3cccc(Br)c3)C(CC(F)(F)F)CCC12 (single isomer, unassigned) [Compound 83A, 1-(3-bromophenyl)-7-hydroxy-5-methyl-2-(2,2,2-trifluoroethyl)-1,2,3,4,4a,5-hexahydrodipyrido[1,2-b:2′,1′-f][1,2,4]triazine-6,8-dione] | 0.152
19 | CN1C(=O)c2c(O)c(=O)ccn2N2C(c3cccc(Br)c3)C(CC(F)(F)F)CCC12 (single isomer, unassigned) [Compound 83B, 1-(3-bromophenyl)-7-hydroxy-5-methyl-2-(2,2,2-trifluoroethyl)-1,2,3,4,4a,5-hexahydrodipyrido[1,2-b:2′,1′-f][1,2,4]triazine-6,8-dione] | 0.0022
20 | CN1C(=O)c2c(O)c(=O)ccn2N2C(c3ccccc3)C(C3CCC(F)(F)CC3)CCC12 (single isomer, unassigned) [Compound 84A, 2-(4,4-difluorocyclohexyl)-7-hydroxy-5-methyl-1-phenyl-1,2,3,4,4a,5-hexahydrodipyrido[1,2-b:2′,1′-f][1,2,4]triazine-6,8-dione] | > 0.81
21 | CN1C(=O)c2c(O)c(=O)ccn2N2C(c3ccccc3)C(C3CCC(F)(F)CC3)CCC12 (single isomer, unassigned) [Compound 84B, 2-(4,4-difluorocyclohexyl)-7-hydroxy-5-methyl-1-phenyl-1,2,3,4,4a,5-hexahydrodipyrido[1,2-b:2′,1′-f][1,2,4]triazine-6,8-dione] | 0.042
22 | CN1C(=O)c2c(O)c(=O)ccn2N2C(c3ccccc3)C(c3ccc(F)c(F)c3F)CCC12 (single isomer, unassigned) [Compound 85A, 7-hydroxy-5-methyl-1-phenyl-2-(2,3,4-trifluorophenyl)-1,2,3,4,4a,5-hexahydrodipyrido[1,2-b:2′,1′-f][1,2,4]triazine-6,8-dione] | > 0.81
23 | CN1C(=O)c2c(O)c(=O)ccn2N2C(c3ccccc3)C(c3ccc(F)c(F)c3F)CCC12 (single isomer, unassigned) [Compound 85B, 7-hydroxy-5-methyl-1-phenyl-2-(2,3,4-trifluorophenyl)-1,2,3,4,4a,5-hexahydrodipyrido[1,2-b:2′,1′-f][1,2,4]triazine-6,8-dione] | 0.0097
24 | CN1C(=O)c2c(O)c(=O)ccn2N2C(c3ccccc3)C(c3ccc(F)c(F)c3F)CCC12 (single isomer, unassigned) [Compound 85C, 7-hydroxy-5-methyl-1-phenyl-2-(2,3,4-trifluorophenyl)-1,2,3,4,4a,5-hexahydrodipyrido[1,2-b:2′,1′-f][1,2,4]triazine-6,8-dione] | > 0.81
25 | CN1C(=O)c2c(O)c(=O)ccn2N2C(c3ccccc3)C(c3ccc(F)c(F)c3F)CCC12 (single isomer, unassigned) [Compound 85D, 7-hydroxy-5-methyl-1-phenyl-2-(2,3,4-trifluorophenyl)-1,2,3,4,4a,5-hexahydrodipyrido[1,2-b:2′,1′-f][1,2,4]triazine-6,8-dione] | 0.218
26 | CN1C(=O)c2c(O)c(=O)ccn2N2C(c3ccccc3)C(c3cc(F)c(F)cc3F)CCC12 (single isomer, unassigned) [Compound 86A, 7-hydroxy-5-methyl-1-phenyl-2-(2,4,5-trifluorophenyl)-1,2,3,4,4a,5-hexahydrodipyrido[1,2-b:2′,1′-f][1,2,4]triazine-6,8-dione] | 0.0043
27 | CN1C(=O)c2c(O)c(=O)ccn2N2C(c3ccccc3)C(c3cc(F)c(F)cc3F)CCC12 (single isomer, unassigned) [Compound 86B, 7-hydroxy-5-methyl-1-phenyl-2-(2,4,5-trifluorophenyl)-1,2,3,4,4a,5-hexahydrodipyrido[1,2-b:2′,1′-f][1,2,4]triazine-6,8-dione] | > 0.81
28 | CN1C(=O)c2c(O)c(=O)ccn2N2C(c3ccccc3)C(c3cc(F)c(F)cc3F)CCC12 (single isomer, unassigned) [Compound 86C, 7-hydroxy-5-methyl-1-phenyl-2-(2,4,5-trifluorophenyl)-1,2,3,4,4a,5-hexahydrodipyrido[1,2-b:2′,1′-f][1,2,4]triazine-6,8-dione] | 0.23
